Data as given in PubChem BioAssay AID330 (DTP/NCI, 2004).
Where “and” joins values, the source holds several entries; their conditions need not be identical. Identical values can stand only once. Toxic doses and inconclusive results are not listed. How the source made its calls: active means survival T/C of 150% or more; inactive means T/C below 125% in these data. Bridge positions count the residues as written; N and C are the ends. Peptide text beside a SMILES is read from it. I, II: the chains in the order shown. * marks the point of attachment. Quinoxaline2carbonyl = O=C(c1cnc2ccccc2n1)*

Test system: P388 leukemia ip, CD2F1 mice, survival T/C
Assay: NCI In Vivo Anticancer Drug Screen. Data for tumor model P388 Leukemia (intraperitoneal) in CD2F1 (CDF1) mice
Conditions: endpoint: median survival time, higher = longer survival
Procedure, shortened: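 Mice carrying the transplanted tumor received test compound or vehicle. Survival was recorded in each group, and the value is the treated-group measurement divided by that of the vehicle-treated control group.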

[1] = dose: 50.0 mg/kg/injection, schedule: Q01DX009 (ip), vehicle: saline with Tween-80
[2] = dose: 100.0 mg/kg/injection, schedule: Q01DX009 (ip), vehicle: saline with Tween-80
[3] = dose: 200.0 mg/kg/injection, schedule: Q01DX009 (ip), vehicle: saline with Tween-80
[4] = dose: 60.0 mg/kg/injection, schedule: Q01DX005 (ip), vehicle: saline with Tween-80
[5] = dose: 120.0 mg/kg/injection, schedule: Q01DX005 (ip), vehicle: saline with Tween-80
[6] = dose: 240.0 mg/kg/injection, schedule: Q01DX005 (ip), vehicle: saline with Tween-80
[7] = dose: 60.0 mg/kg/injection, schedule: Q01DX005 (ip), vehicle: saline
[8] = dose: 120.0 mg/kg/injection, schedule: Q01DX005 (ip), vehicle: saline
[9] = dose: 240.0 mg/kg/injection, schedule: Q01DX005 (ip), vehicle: saline
[10] = dose: 50.0 mg/kg/injection, schedule: Q01DX009 (ip), vehicle: Klucel (hydroxypropylcellulose) (HPC)
[11] = dose: 100.0 mg/kg/injection, schedule: Q01DX009 (ip), vehicle: Klucel (hydroxypropylcellulose) (HPC)
[12] = dose: 200.0 mg/kg/injection, schedule: Q01DX009 (ip), vehicle: Klucel (hydroxypropylcellulose) (HPC)

Measured: T/C

COC(=O)c1c(-c2ccccc2)c(-c2ccccc2)n(-c2ccccc2)c1/N=C/N(C)C
inactive: [1] 97 % of control | [2] 90 % of control | [3] 90 % of control

CSc1nc(NC2OC(CO)C(O)C(O)C2O)c(C=O)c(=O)[nH]1 (centres undefined)
inactive: [4] 92 % of control | [5] 95 % of control | [6] 87 % of control

CC1NC(=O)C(NC(=O)c2cnc3ccccc3n2)COC(=O)C(C(C)C)NC(=O)C2CSSCC(NC1=O)C(=O)NC(C(C)C)C(=O)OCC(NC(=O)c1cnc3ccccc3n1)C(=O)NC(C)C(=O)N2 (centres undefined) (I: Quinoxaline2carbonyl-SACV / II: Quinoxaline2carbonyl-SACV; ester I:1-II:C, I:C-II:1; disulfide I:3-II:3; configuration not given here)
inactive: dose: 1.25 mg/kg/injection, schedule: Q01DX005 (ip), vehicle: Klucel (hydroxypropylcellulose) (HPC) 96 % of control | dose: 2.5 mg/kg/injection, schedule: Q01DX005 (ip), vehicle: Klucel (hydroxypropylcellulose) (HPC) 98 % of control | dose: 5.0 mg/kg/injection, schedule: Q01DX005 (ip), vehicle: Klucel (hydroxypropylcellulose) (HPC) 95 % of control | dose: 10.0 mg/kg/injection, schedule: Q01DX005 (ip), vehicle: Klucel (hydroxypropylcellulose) (HPC) 90 % of control | dose: 20.0 mg/kg/injection, schedule: Q01DX005 (ip), vehicle: Klucel (hydroxypropylcellulose) (HPC) 95 % of control | dose: 40.0 mg/kg/injection, schedule: Q01DX005 (ip), vehicle: Klucel (hydroxypropylcellulose) (HPC) 93 % of control | dose: 60.0 mg/kg/injection, schedule: Q01DX005 (ip), vehicle: Klucel (hydroxypropylcellulose) (HPC) 95 % of control

COc1ccc(C(=O)CCc2c[nH]c3ccccc23)c(O)c1
inactive: [4] 101 % of control | [5] 112 % of control | [6] 92 % of control

Clc1ccc([C@H]2N[C@@H]2c2ccccn2)cc1
inactive: [4] 94 % of control | [5] 103 % of control | [6] 94 % of control

Cc1cc2sccc2cn1
inactive: dose: 25.0 mg/kg/injection, schedule: Q01DX009 (ip), vehicle: saline with Tween-80 100 % of control | [1] 100 % of control

O=C(O)C(C1CCCCC1)C1(O)CCCCCC1 (centres undefined)
inactive: dose: 50.0 mg/kg/injection, schedule: Q01DX005 (ip), vehicle: Klucel (hydroxypropylcellulose) (HPC) 97 % of control | dose: 100.0 mg/kg/injection, schedule: Q01DX005 (ip), vehicle: Klucel (hydroxypropylcellulose) (HPC) 103 % of control | dose: 200.0 mg/kg/injection, schedule: Q01DX005 (ip), vehicle: Klucel (hydroxypropylcellulose) (HPC) 100 % of control

CC1OC(Sc2ncc[nH]2)C(O)C(O)C1O (centres undefined)
inactive: [7] 95 % of control | [8] 94 % of control | [9] 100 % of control

Cc1ccc2nc(N)nnc2c1
inactive: [10] 104 % of control | [11] 100 % of control

CN(C)CCn1c2ccccc2c2cc([N+](=O)[O-])ccc21
inactive: [10] 102 % of control | [11] 105 % of control | [12] 108 % of control

O=C(CCCN1CCC(O)(c2cccc(C(F)(F)F)c2)CC1)c1ccc(F)cc1
inactive: dose: 18.75 mg/kg/injection, schedule: Q04DX003 (ip), vehicle: Klucel (hydroxypropylcellulose) (HPC) 108 % of control | dose: 37.5 mg/kg/injection, schedule: Q04DX003 (ip), vehicle: Klucel (hydroxypropylcellulose) (HPC) 112 % of control | dose: 75.0 mg/kg/injection, schedule: Q04DX003 (ip), vehicle: Klucel (hydroxypropylcellulose) (HPC) 88 % of control

CC1(C)C(C)(C)C1(Cl)S(C)(=O)=O
inactive: dose: 100.0 mg/kg/injection, schedule: Q04DX003 (ip), vehicle: saline with Tween-80 101 % of control | dose: 200.0 mg/kg/injection, schedule: Q04DX003 (ip), vehicle: saline with Tween-80 106 % of control | dose: 400.0 mg/kg/injection, schedule: Q04DX003 (ip), vehicle: saline with Tween-80 106 % of control

C[n+]1cccc(C(=O)OCC(C)(C)N(Cl)Cl)c1
inactive: dose: 50.0 mg/kg/injection, schedule: Q01DX009 (ip), vehicle: saline 109 % of control

Clc1ccc(N=NN2CN3CN(C2)CN(N=Nc2ccc(Cl)cc2)C3)cc1
inactive: dose: 100.0 mg/kg/injection, schedule: Q04DX002 (ip), vehicle: Klucel (hydroxypropylcellulose) (HPC) 94 % of control | dose: 200.0 mg/kg/injection, schedule: Q04DX002 (ip), vehicle: Klucel (hydroxypropylcellulose) (HPC) 99 % of control | dose: 400.0 mg/kg/injection, schedule: Q04DX002 (ip), vehicle: Klucel (hydroxypropylcellulose) (HPC) 91 % of control

CCC(c1ccc(CN(C)C)c(O)c1)C(CC)c1ccc(CN(C)C)c(O)c1 (centres undefined)
inactive: [4] 93 % of control | [5] 91 % of control | [6] 102 % of control

O=NN(CCCl)C(=O)Oc1ccc(OC(=O)N(CCCl)N=O)cc1
inactive: dose: 6.25 mg/kg/injection, schedule: Q01DX001 (ip), vehicle: Klucel (hydroxypropylcellulose) (HPC) 116 % of control | dose: 12.5 mg/kg/injection, schedule: Q01DX001 (ip), vehicle: Klucel (hydroxypropylcellulose) (HPC) 119 % of control

C=C(C)c1nc2c(=O)nc(N)nc-2n(O)c1C
inactive: dose: 37.5 mg/kg/injection, schedule: Q01DX009 (ip), vehicle: saline with Tween-80 99 % of control | dose: 150.0 mg/kg/injection, schedule: Q01DX009 (ip), vehicle: saline with Tween-80 108 % of control

Cc1nc2c(cc1C#N)C(NCCO)Oc1ccccc1-2 (centres undefined)
inactive: [4] 97 % of control | [5] 97 % of control | [6] 99 % of control

S=C1SCCCN1c1ccccc1
inactive: dose: 100.0 mg/kg/injection, schedule: Q04DX003 (ip), vehicle: Klucel (hydroxypropylcellulose) (HPC) 100 % of control | dose: 200.0 mg/kg/injection, schedule: Q04DX003 (ip), vehicle: Klucel (hydroxypropylcellulose) (HPC) 110 % of control

COc1ccc([N+](=O)[O-])cc1NC(=O)c1ccc2c(c1)C(=O)OC2=O
inactive: dose: 7.5 mg/kg/injection, schedule: Q01DX005 (ip), vehicle: saline with Tween-80 97 % of control | dose: 15.0 mg/kg/injection, schedule: Q01DX005 (ip), vehicle: saline with Tween-80 87 % of control | dose: 30.0 mg/kg/injection, schedule: Q01DX005 (ip), vehicle: saline with Tween-80 90 % of control and 94 % of control | [4] 89 % of control | [6] 93 % of control

CCCCCC(CN1CCOCC1)C(=O)/C=C/c1ccccc1 (centres undefined)
inactive: [1] 102 % of control | [2] 102 % of control | [3] 101 % of control

O=C(c1cccc(C(=O)N2CCOCC2)n1)N1CCOCC1
inactive: [7] 106 % of control | [8] 100 % of control | [9] 106 % of control

O=Cc1ccc(O)c(CN2CCCCC2)c1
inactive: dose: 6.25 mg/kg/injection, schedule: Q04DX003 (ip), vehicle: saline 109 % of control | dose: 12.5 mg/kg/injection, schedule: Q04DX003 (ip), vehicle: saline 100 % of control | dose: 25.0 mg/kg/injection, schedule: Q04DX003 (ip), vehicle: saline 100 % of control

Nc1[nH]c(=S)[nH]c(=O)c1NS(=O)(=O)c1ccccc1
inactive: dose: 30.0 mg/kg/injection, schedule: Q01DX005 (ip), vehicle: Klucel (hydroxypropylcellulose) (HPC) 104 % of control and 106 % of control | dose: 120.0 mg/kg/injection, schedule: Q01DX005 (ip), vehicle: Klucel (hydroxypropylcellulose) (HPC) 98 % of control and 97 % of control | dose: 240.0 mg/kg/injection, schedule: Q01DX005 (ip), vehicle: Klucel (hydroxypropylcellulose) (HPC) 98 % of control and 108 % of control

COc1cc2c(cc1O)CCCCC2
inactive: dose: 100.0 mg/kg/injection, schedule: Q01DX009 (sc), vehicle: olive oil, sesame oil, peanut oil 101 % of control | dose: 200.0 mg/kg/injection, schedule: Q01DX009 (sc), vehicle: olive oil, sesame oil, peanut oil 101 % of control | dose: 400.0 mg/kg/injection, schedule: Q01DX009 (sc), vehicle: olive oil, sesame oil, peanut oil 104 % of control

O=[N+]([O-])c1ccc(Nc2ccccc2[N+](=O)[O-])cc1
inactive: dose: 7.5 mg/kg/injection, schedule: Q01DX009 (ip), vehicle: saline with Tween-80 94 % of control | dose: 15.0 mg/kg/injection, schedule: Q01DX009 (ip), vehicle: saline with Tween-80 94 % of control | dose: 30.0 mg/kg/injection, schedule: Q01DX009 (ip), vehicle: saline with Tween-80 91 % of control

Cc1[nH]nc2c(Cc3ccco3)n[nH]c(=O)c12
inactive: [10] 101 % of control | [11] 100 % of control | [12] 100 % of control

COC(=O)[C@H](C)C1OC(O)C=CC1=O (some centres undefined)
inactive: dose: 6.25 mg/kg/injection, schedule: Q01DX001 (ip), vehicle: saline + Tween-80 + alcohol 100 % of control | dose: 12.5 mg/kg/injection, schedule: Q01DX001 (ip), vehicle: saline + Tween-80 + alcohol 108 % of control | dose: 25.0 mg/kg/injection, schedule: Q01DX001 (ip), vehicle: saline + Tween-80 + alcohol 101 % of control | dose: 50.0 mg/kg/injection, schedule: Q01DX001 (ip), vehicle: saline + Tween-80 + alcohol 101 % of control
